# In patent US9359347B2, “Inhibitors of Akt/PKB with anti-tumor activity” (University of South Florida, priority 2007, dated 2016):
# Experiments:
# [1] = test system: Akt; experiment: Immunoblotting with anti-phospho-Akt-S473 antibody in OVCAR3 cells; assay type: cell-based, human; conditions: 3 hours, read-out: IC50, phosphorylation level of Akt (phospho-Akt-S473)
# Procedure: The cells were treated with API-1 at indicated concentration for 2 hours and subjected to immunoblotting analysis with anti-phospho-Akt-S473 antibodies (top panel).
# OVCAR3 cells, which express elevated levels of phosphor-Akt, were treated with different doses of API-1 for 3 hours.
# [2] = test system: PKA; experiment: Immunoblotting of PKA phosphorylation in OVCAR3 cells; assay type: cell-based, human
# Procedure: FIG. 2D is a graph showing the effect of API-1 on PKA, PKC and PDK kinase activity in living cells. OVCAR3 cells were treated with indicated concentration of API-1 for 1 hour. Cells were lysed and immunoblotted with indicated antibodies.
# [3] = test system: OVCAR3; experiment: Cell proliferation MTT assay, OVCAR3; assay type: cell-based, human; conditions: OVCAR3, 24 hours
# Procedure: (§1) The blots were reprobed with anti-actin antibody (bottom panel). FIGS. 4B and 4C are cell proliferation assays in which indicated cell lines were treated with different doses of API-1 for 24 hours and then analyzed with MTT assay. FIGS. 4D-4G show an apoptosis analysis in which cells were treated with API-1 and stained with annexin V and PI and analyzed by FACScan.
# (§2) In vitro kinase was performed as previously described (Jiang et al. 2000). Cell survival was assayed with MTT (Sigma). Apoptosis was detected with annexin V (BD Biosciences), which was performed according to manufacture's instruction. Recombinant Akt and PDK1 were purchased from Upstate Biotechnology Inc.
# (§3) Akt is a major pro-growth and pro-survival pathway.
# [4] = test system: OVCA8; experiment: Cell proliferation MTT assay, OVCA8; assay type: cell-based, human; conditions: OVCA8, 24 hours
# Procedure: as §1, §2, §3
# [5] = test system: MDA-MB-468; experiment: Cell proliferation MTT assay, MDA-MB-468; assay type: cell-based, human; conditions: MDA-MB-468, 24 hours
# Procedure: as §1, §2, §3
# [6] = test system: MCF7; experiment: Cell proliferation MTT assay, MCF7; assay type: cell-based, human; conditions: MCF7, 24 hours
# Procedure: as §1, §2, §3
# [7] = test system: OVCAR5; experiment: Cell proliferation MTT assay, OVCAR5; assay type: cell-based, human; conditions: OVCAR5, 24 hours
# Procedure: as §1, §2, §3
# [8] = test system: MDA-MB-435s cells; experiment: Cell proliferation MTT assay, MDA-MB-435s; assay type: cell-based, human; conditions: 24 hours
# Procedure: as §1, §2, §3
# [9] = test system: OVACAR3; experiment: Apoptosis analysis (annexin V and PI, FACScan), OVACAR3; assay type: cell-based, human
# Procedure: as §1, §2, §3
# [10] = test system: MDA-MB-468; experiment: Apoptosis analysis (annexin V and PI, FACScan), MDA-MB-468; assay type: cell-based, human; conditions: MDA-MB-468, annexin V and PI
# Procedure: as §1, §2, §3
# [11] = test system: OVCAR3 tumors; experiment: Nude mouse tumor xenograft model, OVCAR3; assay type: in vivo, nude mice; conditions: 10 mg/kg/day i.p.
# Text: (§4) Tumor cells were subcutaneously injected into nude mice with low level of Akt cells on right side and elevated level of Akt cells on left side.
# [12] = test system: PANC1 tumors; experiment: Nude mouse tumor xenograft model, PANC1; assay type: in vivo, nude mice; conditions: 10 mg/kg/day i.p.
# Text: as §4
# [13] = Tolerability observations in xenograft mice; assay type: in vivo; conditions: 10 mg/kg/day, data not shown
# Procedure: Tumor cells were harvested, resuspended in PBS, and injected subcutaneous (s.c.) into the right and left flanks (2×10^6 cells/flank) of 8-week-old female nude mice as reported previously (Sun et al. 1999). When tumors reached about 100-150 mm^3, animals were randomized and dosed intraperitoneal (i.p.) with vehicle or drug daily. Control animals received dimethylsulfoxide (DMSO) (20%) vehicle and treated animals were injected with API-1 (10 mg/kg/day) in 20% DMSO.
# Because API-1 inhibits Akt signaling and induces apoptosis and cell growth arrest in cancer cells with elevated levels of Akt (FIGS. 4A-4G), it was reasoned that the growth of tumors with elevated levels of Akt should be more sensitive to API-1 than that of tumors with low levels of Akt in nude mice. To this end, Akt-overexpressing cells (OVCAR3 and PANC-1) were s.c. implanted into the left flank, and those cell lines that express low levels of Akt (OVCAR5 and COLO357) were s.c. implanted into the right flank of mice. When the tumors reached an average size of about 100-150 mm^3, the animals were randomized and treated i.p. with either vehicle or API-1 (10 mg/kg/day). As illustrated in FIGS. 5A-5J, OVCAR3 and PANC1 tumors treated with vehicle control continued to grow. API-1 inhibited OVCAR3 and PANC1 tumor growth by 70% and 50%, respectively (FIGS. 5C-5F and 5G-5J). In contrast, API-1 had little effect on the growth of OVCAR5 and COLO357 cells in nude mice (FIGS. 5A-5J). At dose 10 mg/kg/day, API-1 had no effects on blood glucose level, body weight, activity and food intake of mice (data not shown).
# [14] = test system: Akt; experiment: Immunoblotting of Akt phosphorylation in treated tumor specimens; assay type: in vivo, nude mice; conditions: 10 mg/kg/day
# Text: Tumor cells were subcutaneously injected into nude mice with low level of Akt cells on right side and elevated level of Akt cells on left side. […] API-1 treated and untreated tumor specimens were lysed and immunoblotted with indicated antibodies.
# [15] = target: T1, Akt (Homo sapiens, UniProt P31749); experiment: IGF-1 induced plasma membrane translocation of Akt in Myc-AKT1 transfected HeLa cells; assay type: cell-based; conditions: Myc-AKT1, 30 min prior to IGF1 for 15 minutes
# T1 construct: expressed in transfected cells; host or cells: HeLa
# Procedure: HeLa cells were transfected on coverslips with Myc-AKT1, serum-starved overnight and then treated with (FIG. 6C) or without (FIG. 6B) AKT-SI1 for 30 min prior to stimulation with IGF1 for 15 minutes. Following fixation, cells were immuno-stained with the anti-Myc monoclonal antibody, followed by a FITC-conjugated secondary antibody to reveal the presence of the epitope-tagged protein in the cytosol or membrane (FIG. 6B). Cells without treatment with AKT-SI1 and IGF1 were used as control (FIG. 6A).
# [16] = test system: Akt downstream targets; experiment: Phosphorylation of Akt downstream targets (FIG. 3C); assay type: cell-based
# [17] = target: mTORC1 (Homo sapiens, UniProt P42345); experiment: Interference with mTORC1 complex (FIG. 3D)
# [18] = target: mTORC2 (Homo sapiens, UniProt P42345); experiment: Interference with mTORC2 complex (FIG. 3D)
# [19] = target: T2, wild-type Myc-AKT1 (Homo sapiens, UniProt P31749); conditions: wild-type Myc-AKT1 transfected HEK 293 cells
# [20] = target: T3, constitutively active Myc-AKT1-E17K (Homo sapiens, UniProt P31749, E17K); conditions: Myc-AKT1-E17K transfected HEK 293 cells
# [21] = target: T3, constitutively active Myc-AKT1-E17K; experiment: In vitro kinase assay of anti-Myc immunoprecipitates from Myc-AKT1-E17K transfected HEK293 cells; conditions: HEK293, Histone H2B substrate
# Procedure: (§5) Nevertheless, we compared their capability of inhibiting Akt. HEK293 cells were transfected with wild-type Myc-AKT1 (FIGS. 7B and 7C) and constitutively active Myc-AKT1-E17K (FIGS. 7D and 7E). Following 36 h incubation, cells were serum starved overnight. […] Immunoprecipitation was carried out with anti-Myc antibody and the immunoprecipitates were subjected to in vitro kinase assay using Histone H2B as substrate (top). […] The experiments were repeated three times.
# [22] = target: T2, wild-type Myc-AKT1; experiment: In vitro kinase assay of anti-Myc immunoprecipitates from wild-type Myc-AKT1 transfected HEK293 cells; conditions: wild-type Myc-AKT1, HEK293, 30 min then EGF 15 min, Histone H2B substrate
# Procedure: as §5
# T2 sequence (P31749 whole entry): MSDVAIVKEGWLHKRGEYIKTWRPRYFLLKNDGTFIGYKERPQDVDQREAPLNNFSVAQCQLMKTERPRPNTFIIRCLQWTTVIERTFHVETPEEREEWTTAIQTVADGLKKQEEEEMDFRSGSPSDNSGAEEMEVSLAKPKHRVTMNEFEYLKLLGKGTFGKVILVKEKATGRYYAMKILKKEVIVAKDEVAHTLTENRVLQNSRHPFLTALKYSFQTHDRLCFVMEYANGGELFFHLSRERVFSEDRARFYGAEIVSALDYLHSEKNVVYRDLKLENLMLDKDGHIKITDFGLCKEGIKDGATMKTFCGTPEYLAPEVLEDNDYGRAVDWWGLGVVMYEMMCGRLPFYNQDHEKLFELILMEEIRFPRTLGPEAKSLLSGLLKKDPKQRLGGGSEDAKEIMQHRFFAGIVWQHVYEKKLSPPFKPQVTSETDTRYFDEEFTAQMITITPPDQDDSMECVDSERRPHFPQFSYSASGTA
# T3 sequence (P31749 whole entry E17K): as the sequence (P31749 whole entry) above, with E17K counted along it
# T1 sequence (P31749 whole entry): as the sequence (P31749 whole entry) above
molecule,measurement,setting,value
NC(=O)c1cn(C2OC(CO)C(O)C2O)c2ncnc(N)c2c1=O (stereo not shown) [API-1],IC50,[1],~800 nM
same,phosphorylation levels of PKA,[2],not inhibited
same,inhibition of cell proliferation,[3],50-70%
same,inhibition of cell proliferation,[4],50-70%
same,inhibition of cell proliferation,[5],50-70%
same,inhibition of cell proliferation,[6],50-70%
same,inhibition of cell proliferation,[7],10-30%
same,inhibition of cell proliferation,[8],10-30%
same,induction of apoptosis,[9],9 fold
same,induction of apoptosis,[10],4.6 fold
same,inhibition of tumor growth,[11],70%
same,inhibition of tumor growth,[12],50%
same,activity,[13],no effects
same,blood glucose level,[13],no effects
same,body weight,[13],no effects
same,food intake,[13],no effects
same,reduction of phosphorylation levels of Akt in treated tumor samples,[14],about 70%
API-1,IGF-1 induced plasma membrane translocation of Akt,[15],inhibits
same,phosphorylation of Akt downstream targets,[16],inhibited
same,interference with mTORC1 complex,[17],did not interfere
same,interference with mTORC2 complex,[18],did not interfere
same,phospho-Akt levels (S473),[19],inhibit
same,phospho-Akt levels (S473),[20],inhibit
same,"inhibition of Akt kinase activity, compared with API-2/TCN",[21],more potent than API-2/TCN
same,"inhibition of Akt kinase activity, compared with API-2/TCN",[22],more potent than API-2/TCN
